pIC50: −log10 of the molar value.

The target of the assay is cGMP PDE5 (UniProt O76074). In words: In vitro PDE inhibitory activity against cGMP PDE5. The format is biochemical. To be noted: in vitro inhibition of cGMP PDE5. The protocol: In vitro PDE inhibitory activities against cyclic guanosine 3′,5′-monophosphate (cGMP) and cyclic adenosine 3′,5′-monophosphate (cAMP) phosphodiesterases were determined by measurement of their IC50 values (the concentration of compound required for 50% inhibition of enzyme activity).
The required PDE enzymes were isolated from a variety of sources, including human corpus cavernosum, human and rabbit platelets, human cardiac ventricle, human skeletal muscle and bovine retina, essentially by the method of W. J. Thompson and M. M. Appleman (Biochem., 1971, 10, 311). In particular, the cGMP-specific PDE (PDE5) and the cGMP-inhibited cAMP PDE (PDE3) were obtained from human corpus cavernosum tissue, human platelets or rabbit platelets; the cGMP-stimulated PDE (PDE2) was obtained from human corpus cavernosum; the calcium/calmodulin (Ca/CAM)-dependent PDE (PDE1) from human cardiac ventricle; the cAMP-specific PDE (PDE4) from human skeletal muscle; and the photoreceptor PDE (PDE6) from bovine retina.
Assays were performed using a modification of the “batch” method of W. J. Thompson et al. (Biochem., 1979, 18, 5228).
For orientation: pIC50 means the IC50 on a negative log10 scale, so that one unit is a factor of ten. A high value points to a small IC50. In turn, `CCCOc1ccc(S(=O)(=O)N2CCN(CC)CC2)cc1-c1nc2c(c(Cc3ccccn3)nn2CCC)c(=O)[nH]1` [Example 1, 6-[5-(4-Ethylpiperazin-1-ylsulphonyl)-2-n-propoxyphenyl]-1-n-propyl-3-(pyridin-2-yl)methyl-1,5-dihydro-4H-pyrazolo[3,4-d]pyrimidin-4-one] had a pIC50 of 8.03.
Under `CCCn1nc(Cc2ccccc2)c2c(=O)[nH]c(-c3cc(S(=O)(=O)N4CCN(C)CC4)ccc3OCC)nc21` [Example 4, 3-Benzyl-6-[2-ethoxy-5-(4-methylpiperazin-1-ylsulphonyl)phenyl]-1-n-propyl-1,5-dihydro-4H-pyrazolo[3,4-d]pyrimidin-4-one] stands 8.25; under `CCCOc1ccc(S(=O)(=O)N2CCN(C)CC2)cc1-c1nc2c(c(C)nn2Cc2ccccn2)c(=O)[nH]1` [Example 14, 3-Methyl-6-[5-(4-methylpiperazin-1-ylsulphonyl)-2-n-propoxyphenyl]-1-(pyridin-2-yl)methyl-1,5-dihydro-4H-pyrazolo[3,4-d]pyrimidin-4-one], 8.36.
In the case of `CCOc1ncc(S(=O)(=O)N2CCN(CC)CC2)cc1-c1nc2c(c(-c3cnccn3)nn2CC)c(=O)[nH]1` [Example 18, 6-[2-Ethoxy-5-(4-ethylpiperazin-1-ylsulphonyl)pyridin-3-yl]-1-ethyl-3-(pyrazin-2-yl)-1,5-dihydro-4H-pyrazolo[3,4-d]pyrimidin-4-one] it was 8.09.
Consider `CCCn1nc(-c2cnccn2)c2c(=O)[nH]c(-c3cc(S(=O)(=O)N4CCN(CC)CC4)cnc3OCC)nc21` [Example 19, 6-[2-Ethoxy-5-(4-ethylpiperazin-1-ylsulphonyl)pyridin-3-yl]-1-n-propyl-3-(pyrazin-2-yl)-1,5-dihydro-4H-pyrazolo[3,4-d]pyrimidin-4-one], for which the pIC50 is 8.12.
`CCOc1ncc(S(=O)(=O)N2CCN(CC)CC2)cc1-c1nc2c(c(-c3ccccc3)nn2CC)c(=O)[nH]1` [Example 21, 6-[2-Ethoxy-5-(4-ethylpiperazin-1-ylsulphonyl)pyridin-3-yl]-1-ethyl-3-phenyl-1,5-dihydro-4H-pyrazolo[3,4-d]pyrimidin-4-one]: the pIC50 is 8.34.

(Values after patent US6407114B1, “Pyrazolopyrimidinone CGMP PDE5 inhibitors for the treatment of sexual dysfunction” (Pfizer Inc., priority 1998, dated 2002).)
